Experimental data published in publication PMC11842588, “A first-in-class selective inhibitor of ERK1/2 and ERK5 overcomes drug resistance with a single-molecule strategy” (Signal Transduction and Targeted Therapy, 2025).

Experiments:
Assay in all cases: Kinase profiling
Format in all cases: biochemical
PKD2(h) = target: T1, PKD2(h) (Homo sapiens, UniProt Q9BZL6)
T1 construct: purchased Eurofins Cerep SA (KinaseProfiler)
Method: (§1) 380 kinases inhibitory activities of SKLB-D18 were conducted by Eurofins Cerep SA. The result was illustrated by kinase tree (http://www.kinhub.org/kinmap/).

PKBβ(h) = target: T2, PKBβ(h) (Homo sapiens, UniProt P31751)
T2 construct: purchased Eurofins Cerep SA (KinaseProfiler)
Method: as §1

Aurora-C(h) = target: T3, Aurora-C(h) (Homo sapiens, UniProt Q9UQB9)
T3 construct: purchased Eurofins Cerep SA (KinaseProfiler)
Method: as §1

CDK2/cyclinE(h) = target: T4, CDK2/cyclinE(h) (Homo sapiens, UniProt P24941)
T4 construct: purchased Eurofins Cerep SA (KinaseProfiler)
Method: as §1

CRIK(h) = target: T5, CRIK(h) (Homo sapiens, UniProt O14578)
T5 construct: purchased Eurofins Cerep SA (KinaseProfiler)
Method: as §1

CaMKIIβ(h) = target: T6, CaMKIIβ(h) (Homo sapiens, UniProt Q13554)
T6 construct: purchased Eurofins Cerep SA (KinaseProfiler)
Method: as §1

BrSK2(h) = target: T7, BrSK2(h) (Homo sapiens, UniProt Q8IWQ3)
T7 construct: purchased Eurofins Cerep SA (KinaseProfiler)
Method: as §1

cKit(h) = target: T8, cKit(h) (Homo sapiens, UniProt P10721)
T8 construct: purchased Eurofins Cerep SA (KinaseProfiler)
Method: as §1

LATS1(h) = target: T9, LATS1(h) (Homo sapiens, UniProt O95835)
T9 construct: purchased Eurofins Cerep SA (KinaseProfiler)
Method: as §1

CK1ε(h) = target: T10, CK1ε(h) (Homo sapiens, UniProt P49674)
T10 construct: purchased Eurofins Cerep SA (KinaseProfiler)
Method: as §1

ALK(h) = target: T11, ALK(h) (Homo sapiens, UniProt Q9UM73)
T11 construct: purchased Eurofins Cerep SA (KinaseProfiler)
Method: as §1

ErbB2(h) = target: T12, ErbB2(h) (Homo sapiens, UniProt P04626)
T12 construct: purchased Eurofins Cerep SA (KinaseProfiler)
Method: as §1

PKG1β(h) = target: T13, PKG1β(h) (Homo sapiens, UniProt Q13976)
T13 construct: purchased Eurofins Cerep SA (KinaseProfiler)
Method: as §1

ULK3(h) = target: T14, ULK3(h) (Homo sapiens, UniProt Q6PHR2)
T14 construct: purchased Eurofins Cerep SA (KinaseProfiler)
Method: as §1

SNRK(h) = target: T15, SNRK(h) (Homo sapiens, UniProt Q9NRH2)
T15 construct: purchased Eurofins Cerep SA (KinaseProfiler)
Method: as §1

Flt4(h) = target: T16, Flt4(h) (Homo sapiens, UniProt P35916)
T16 construct: purchased Eurofins Cerep SA (KinaseProfiler)
Method: as §1

DNA-PK(h) = target: T17, DNA-PK(h) (Homo sapiens, UniProt P78527)
T17 construct: purchased Eurofins Cerep SA (KinaseProfiler)
Method: as §1

CK1γ3(h) = target: T18, CK1γ3(h) (Homo sapiens, UniProt Q9Y6M4)
T18 construct: purchased Eurofins Cerep SA (KinaseProfiler)
Method: as §1

EphA3(h) = target: T19, EphA3(h) (Homo sapiens, UniProt P29320)
T19 construct: purchased Eurofins Cerep SA (KinaseProfiler)
Method: as §1

BIKe(h) = target: T20, BIKe(h) (Homo sapiens, UniProt Q9NSY1)
T20 construct: purchased Eurofins Cerep SA (KinaseProfiler)
Method: as §1

Plk4(h) = target: T21, Plk4(h) (Homo sapiens, UniProt O00444)
T21 construct: purchased Eurofins Cerep SA (KinaseProfiler)
Method: as §1

Aurora-B(h) = target: T22, Aurora-B(h) (Homo sapiens, UniProt Q96GD4)
T22 construct: purchased Eurofins Cerep SA (KinaseProfiler)
Method: as §1

LIMK2(h) = target: T23, LIMK2(h) (Homo sapiens, UniProt P53671)
T23 construct: purchased Eurofins Cerep SA (KinaseProfiler)
Method: as §1

PKCμ(h) = target: T24, PKCμ(h) (Homo sapiens, UniProt Q15139)
T24 construct: purchased Eurofins Cerep SA (KinaseProfiler)
Method: as §1

CDK7/cyclinH/MAT1(h) = target: T25, CDK7/cyclinH/MAT1(h) (Homo sapiens, UniProt P50613)
T25 construct: purchased Eurofins Cerep SA (KinaseProfiler)
Method: as §1

TSSK4(h) = target: T26, TSSK4(h) (Homo sapiens, UniProt Q6SA08)
T26 construct: purchased Eurofins Cerep SA (KinaseProfiler)
Method: as §1

MLK3(h) = target: T27, MLK3(h) (Homo sapiens, UniProt Q16584)
T27 construct: purchased Eurofins Cerep SA (KinaseProfiler)
Method: as §1

SRPK1(h) = target: T28, SRPK1(h) (Homo sapiens, UniProt Q96SB4)
T28 construct: purchased Eurofins Cerep SA (KinaseProfiler)
Method: as §1

PKCζ(h) = target: T29, PKCζ(h) (Homo sapiens, UniProt Q05513)
T29 construct: purchased Eurofins Cerep SA (KinaseProfiler)
Method: as §1

GRK7(h) = target: T30, GRK7(h) (Homo sapiens, UniProt Q8WTQ7)
T30 construct: purchased Eurofins Cerep SA (KinaseProfiler)
Method: as §1

ASK1(h) = target: T31, ASK1(h) (Homo sapiens, UniProt Q99683)
T31 construct: purchased Eurofins Cerep SA (KinaseProfiler)
Method: as §1

JNK2α2(h) = target: T32, JNK2α2(h) (Homo sapiens, UniProt P45984)
T32 construct: purchased Eurofins Cerep SA (KinaseProfiler)
Method: as §1

MAPKAP-K3(h) = target: T33, MAPKAP-K3(h) (Homo sapiens, UniProt Q16644)
T33 construct: purchased Eurofins Cerep SA (KinaseProfiler)
Method: as §1

p70S6Kβ(h) = target: T34, p70S6Kβ(h) (Homo sapiens, UniProt Q9UBS0)
T34 construct: purchased Eurofins Cerep SA (KinaseProfiler)
Method: as §1

PRK1(h) = target: T35, PRK1(h) (Homo sapiens, UniProt Q16512)
T35 construct: purchased Eurofins Cerep SA (KinaseProfiler)
Method: as §1

PAR-1Bα(h) = target: T36, PAR-1Bα(h) (Homo sapiens, UniProt Q7KZI7)
T36 construct: purchased Eurofins Cerep SA (KinaseProfiler)
Method: as §1

CLIK1(h) = target: T37, CLIK1(h) (Homo sapiens, UniProt Q8TDR2)
T37 construct: purchased Eurofins Cerep SA (KinaseProfiler)
Method: as §1

MEK2(h) = target: T38, MEK2(h) (Homo sapiens, UniProt P36507)
T38 construct: purchased Eurofins Cerep SA (KinaseProfiler)
Method: as §1

PAK6(h) = target: T39, PAK6(h) (Homo sapiens, UniProt Q9NQU5)
T39 construct: purchased Eurofins Cerep SA (KinaseProfiler)
Method: as §1

A-Raf(h) = target: T40, A-Raf(h) (Homo sapiens, UniProt P10398)
T40 construct: purchased Eurofins Cerep SA (KinaseProfiler)
Method: as §1

SAPK2b(h) = target: T41, SAPK2b(h) (Homo sapiens, UniProt Q15759)
T41 construct: purchased Eurofins Cerep SA (KinaseProfiler)
Method: as §1

T14 sequence (Q6PHR2 whole entry): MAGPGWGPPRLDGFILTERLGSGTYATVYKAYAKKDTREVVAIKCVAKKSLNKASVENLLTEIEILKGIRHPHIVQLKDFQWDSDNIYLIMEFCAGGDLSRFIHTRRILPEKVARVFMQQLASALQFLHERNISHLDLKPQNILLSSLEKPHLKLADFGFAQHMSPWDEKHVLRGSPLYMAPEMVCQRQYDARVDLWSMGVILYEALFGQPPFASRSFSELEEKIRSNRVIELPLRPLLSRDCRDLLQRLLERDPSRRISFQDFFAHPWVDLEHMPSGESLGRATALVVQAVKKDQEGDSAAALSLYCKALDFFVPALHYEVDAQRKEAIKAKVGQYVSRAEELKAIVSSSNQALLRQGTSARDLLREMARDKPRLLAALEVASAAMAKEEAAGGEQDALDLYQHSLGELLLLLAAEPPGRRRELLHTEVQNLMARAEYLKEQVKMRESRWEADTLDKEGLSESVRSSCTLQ
T22 sequence (Q96GD4 whole entry): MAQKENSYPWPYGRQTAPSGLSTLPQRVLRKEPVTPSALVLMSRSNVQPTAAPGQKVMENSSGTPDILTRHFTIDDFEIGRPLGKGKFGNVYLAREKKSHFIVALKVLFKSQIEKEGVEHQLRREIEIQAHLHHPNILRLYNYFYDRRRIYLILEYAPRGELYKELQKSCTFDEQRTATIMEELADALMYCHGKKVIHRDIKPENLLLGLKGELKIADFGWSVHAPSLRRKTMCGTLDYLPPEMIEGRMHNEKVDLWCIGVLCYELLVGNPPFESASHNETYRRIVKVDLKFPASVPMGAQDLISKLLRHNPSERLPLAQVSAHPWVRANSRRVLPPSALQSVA
T7 sequence (Q8IWQ3 whole entry): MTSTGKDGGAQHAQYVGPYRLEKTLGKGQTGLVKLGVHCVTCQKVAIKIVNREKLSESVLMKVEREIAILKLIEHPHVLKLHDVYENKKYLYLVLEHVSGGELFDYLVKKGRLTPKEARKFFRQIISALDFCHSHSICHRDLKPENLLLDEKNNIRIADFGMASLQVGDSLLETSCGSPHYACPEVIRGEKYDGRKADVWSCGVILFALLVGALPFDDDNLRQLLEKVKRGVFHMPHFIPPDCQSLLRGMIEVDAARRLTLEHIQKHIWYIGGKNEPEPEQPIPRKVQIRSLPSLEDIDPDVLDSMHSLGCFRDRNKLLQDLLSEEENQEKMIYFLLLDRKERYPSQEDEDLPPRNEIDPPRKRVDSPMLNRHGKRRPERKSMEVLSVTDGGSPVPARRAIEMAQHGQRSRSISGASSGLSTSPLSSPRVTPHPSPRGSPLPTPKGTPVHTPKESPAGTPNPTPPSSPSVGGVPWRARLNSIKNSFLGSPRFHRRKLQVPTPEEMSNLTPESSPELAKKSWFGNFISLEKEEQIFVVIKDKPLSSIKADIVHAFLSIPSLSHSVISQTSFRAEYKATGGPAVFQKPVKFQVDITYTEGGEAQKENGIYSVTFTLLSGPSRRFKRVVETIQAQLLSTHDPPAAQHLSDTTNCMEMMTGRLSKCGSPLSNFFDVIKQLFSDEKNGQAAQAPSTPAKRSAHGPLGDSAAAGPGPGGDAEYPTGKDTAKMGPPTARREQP
T5 sequence (O14578 whole entry): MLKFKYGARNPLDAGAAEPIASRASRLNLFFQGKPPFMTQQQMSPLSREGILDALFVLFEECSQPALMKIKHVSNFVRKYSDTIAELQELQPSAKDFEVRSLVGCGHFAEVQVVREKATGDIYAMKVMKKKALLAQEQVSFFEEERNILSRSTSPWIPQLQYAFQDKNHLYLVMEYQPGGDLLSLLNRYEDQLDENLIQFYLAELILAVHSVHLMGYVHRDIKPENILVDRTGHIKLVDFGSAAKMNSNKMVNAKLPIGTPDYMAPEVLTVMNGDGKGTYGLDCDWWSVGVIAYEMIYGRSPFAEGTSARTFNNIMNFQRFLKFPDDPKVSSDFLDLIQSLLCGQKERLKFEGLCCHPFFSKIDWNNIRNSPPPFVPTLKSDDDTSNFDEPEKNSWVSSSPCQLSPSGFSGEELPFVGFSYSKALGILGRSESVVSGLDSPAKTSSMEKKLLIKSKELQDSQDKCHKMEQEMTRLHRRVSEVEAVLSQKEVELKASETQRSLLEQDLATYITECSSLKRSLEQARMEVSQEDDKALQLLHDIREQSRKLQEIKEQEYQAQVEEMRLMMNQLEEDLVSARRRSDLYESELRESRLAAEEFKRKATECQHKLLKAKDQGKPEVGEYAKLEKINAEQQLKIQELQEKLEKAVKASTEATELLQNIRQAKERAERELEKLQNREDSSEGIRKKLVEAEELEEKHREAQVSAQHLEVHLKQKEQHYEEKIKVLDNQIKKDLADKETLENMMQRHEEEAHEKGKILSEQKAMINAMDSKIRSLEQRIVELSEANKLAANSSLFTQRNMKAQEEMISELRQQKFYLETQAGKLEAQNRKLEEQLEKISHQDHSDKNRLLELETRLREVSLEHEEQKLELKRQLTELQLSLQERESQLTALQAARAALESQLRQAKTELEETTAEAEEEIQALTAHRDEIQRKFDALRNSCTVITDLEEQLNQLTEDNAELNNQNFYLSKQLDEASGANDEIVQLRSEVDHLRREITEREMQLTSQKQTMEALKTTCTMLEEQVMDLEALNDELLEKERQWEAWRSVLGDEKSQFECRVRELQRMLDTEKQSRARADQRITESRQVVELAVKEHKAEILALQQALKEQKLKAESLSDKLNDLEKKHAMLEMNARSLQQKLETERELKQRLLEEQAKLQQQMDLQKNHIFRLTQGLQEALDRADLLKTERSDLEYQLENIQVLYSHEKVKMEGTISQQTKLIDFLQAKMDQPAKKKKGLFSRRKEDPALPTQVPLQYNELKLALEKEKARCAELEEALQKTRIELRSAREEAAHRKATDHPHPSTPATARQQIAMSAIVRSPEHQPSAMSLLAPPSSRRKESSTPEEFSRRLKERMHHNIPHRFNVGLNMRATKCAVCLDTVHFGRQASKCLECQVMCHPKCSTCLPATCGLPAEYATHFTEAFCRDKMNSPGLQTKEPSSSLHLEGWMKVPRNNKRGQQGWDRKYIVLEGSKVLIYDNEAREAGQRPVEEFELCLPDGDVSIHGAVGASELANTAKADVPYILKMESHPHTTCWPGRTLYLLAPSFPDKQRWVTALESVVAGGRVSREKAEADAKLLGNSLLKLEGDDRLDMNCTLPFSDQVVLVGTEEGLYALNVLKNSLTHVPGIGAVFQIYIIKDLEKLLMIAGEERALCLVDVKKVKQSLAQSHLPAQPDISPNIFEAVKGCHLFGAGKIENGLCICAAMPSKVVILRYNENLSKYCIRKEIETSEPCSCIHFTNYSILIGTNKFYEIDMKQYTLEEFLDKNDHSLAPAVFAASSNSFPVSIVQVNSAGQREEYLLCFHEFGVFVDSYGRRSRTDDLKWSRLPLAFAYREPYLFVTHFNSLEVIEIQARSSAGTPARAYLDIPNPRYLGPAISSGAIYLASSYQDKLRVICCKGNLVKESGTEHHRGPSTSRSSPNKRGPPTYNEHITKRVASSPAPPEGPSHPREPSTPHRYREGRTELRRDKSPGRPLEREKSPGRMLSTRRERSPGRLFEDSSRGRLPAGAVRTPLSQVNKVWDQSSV
T16 sequence (P35916 25-1363): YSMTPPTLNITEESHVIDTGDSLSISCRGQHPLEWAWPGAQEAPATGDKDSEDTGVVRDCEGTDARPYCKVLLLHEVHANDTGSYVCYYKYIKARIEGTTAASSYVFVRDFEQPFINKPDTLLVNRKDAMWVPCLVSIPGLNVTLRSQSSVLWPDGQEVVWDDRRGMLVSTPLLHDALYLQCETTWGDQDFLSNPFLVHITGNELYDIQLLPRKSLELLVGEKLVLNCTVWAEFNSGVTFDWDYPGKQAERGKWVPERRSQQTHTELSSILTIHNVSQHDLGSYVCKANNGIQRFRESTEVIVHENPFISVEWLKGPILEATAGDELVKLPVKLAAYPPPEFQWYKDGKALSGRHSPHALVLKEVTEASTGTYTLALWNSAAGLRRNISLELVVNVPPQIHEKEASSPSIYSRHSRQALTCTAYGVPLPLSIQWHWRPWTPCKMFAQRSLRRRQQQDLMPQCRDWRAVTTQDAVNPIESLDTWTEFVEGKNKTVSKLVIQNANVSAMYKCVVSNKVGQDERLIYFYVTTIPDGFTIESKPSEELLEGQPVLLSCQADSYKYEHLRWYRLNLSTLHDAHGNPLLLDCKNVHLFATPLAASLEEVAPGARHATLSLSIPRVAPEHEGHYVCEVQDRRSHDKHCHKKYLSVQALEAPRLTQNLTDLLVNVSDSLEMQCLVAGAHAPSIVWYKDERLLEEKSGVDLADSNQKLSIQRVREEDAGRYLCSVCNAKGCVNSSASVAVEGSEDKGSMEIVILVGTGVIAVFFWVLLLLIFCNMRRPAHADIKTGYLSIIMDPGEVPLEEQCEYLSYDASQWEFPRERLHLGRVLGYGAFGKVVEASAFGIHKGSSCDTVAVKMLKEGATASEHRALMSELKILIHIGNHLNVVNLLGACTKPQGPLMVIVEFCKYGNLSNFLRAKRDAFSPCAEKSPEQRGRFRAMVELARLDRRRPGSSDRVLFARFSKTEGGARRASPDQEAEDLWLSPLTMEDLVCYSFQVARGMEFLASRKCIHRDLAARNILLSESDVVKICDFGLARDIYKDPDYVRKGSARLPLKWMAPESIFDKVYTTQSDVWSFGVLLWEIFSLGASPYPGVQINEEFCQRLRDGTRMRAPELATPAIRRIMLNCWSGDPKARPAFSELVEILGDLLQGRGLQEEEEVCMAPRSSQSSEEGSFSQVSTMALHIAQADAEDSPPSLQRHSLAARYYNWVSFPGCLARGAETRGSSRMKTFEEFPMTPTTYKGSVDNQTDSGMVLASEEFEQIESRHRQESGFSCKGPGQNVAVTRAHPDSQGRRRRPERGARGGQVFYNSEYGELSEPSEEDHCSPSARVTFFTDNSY

CN(C)Cc1cccc(Nc2ncc(Cl)c(-c3csc(C(=O)NN4CCOCC4)c3)n2)c1 [SKLB-D18, 4-(5-chloro-2-((3-((dimethylamino)methyl)phenyl)amino)pyrimidin-4-yl)-N-morpholinothiophene-2-carboxamide]
inhibition at 1 µM (PKD2(h)): 66% | inhibition at 1 µM (PKBβ(h)): -12% | inhibition at 1 µM (Aurora-C(h)): 66% | inhibition at 1 µM (CDK2/cyclinE(h)): 48% | inhibition at 1 µM (CRIK(h)): 19% | inhibition at 1 µM (CaMKIIβ(h)): 44% | inhibition at 1 µM (BrSK2(h)): 23% | inhibition at 1 µM (cKit(h)): 69% | inhibition at 1 µM (LATS1(h)): 21% | inhibition at 1 µM (CK1ε(h)): 18% | inhibition at 1 µM (ALK(h)): 13% | inhibition at 1 µM (ErbB2(h)): -3% | inhibition at 1 µM (PKG1β(h)): 4% | inhibition at 1 µM (ULK3(h)): 45% | inhibition at 1 µM (SNRK(h)): -14% | inhibition at 1 µM (Flt4(h)): 63% | inhibition at 1 µM (DNA-PK(h)): 10% | inhibition at 1 µM (CK1γ3(h)): 14% | inhibition at 1 µM (EphA3(h)): 12% | inhibition at 1 µM (BIKe(h)): 52% | inhibition at 1 µM (Plk4(h)): 38% | inhibition at 1 µM (Aurora-B(h)): 66% | inhibition at 1 µM (LIMK2(h)): 17% | inhibition at 1 µM (PKCμ(h)): 64% | inhibition at 1 µM (CDK7/cyclinH/MAT1(h)): 57% | inhibition at 1 µM (TSSK4(h)): 36% | inhibition at 1 µM (MLK3(h)): 69% | inhibition at 1 µM (SRPK1(h)): -2% | inhibition at 1 µM (PKCζ(h)): -15% | inhibition at 1 µM (GRK7(h)): 5% | inhibition at 1 µM (ASK1(h)): -5% | inhibition at 1 µM (JNK2α2(h)): 48% | inhibition at 1 µM (MAPKAP-K3(h)): -10% | inhibition at 1 µM (p70S6Kβ(h)): 15% | inhibition at 1 µM (PRK1(h)): 73% | inhibition at 1 µM (PAR-1Bα(h)): 65% | inhibition at 1 µM (CLIK1(h)): 12% | inhibition at 1 µM (MEK2(h)): 59% | inhibition at 1 µM (PAK6(h)): 10% | inhibition at 1 µM (A-Raf(h)): 63% | inhibition at 1 µM (SAPK2b(h)): 4%
